Data set [1] concerns ossifications (ankle region and popliteal fossa area). The data set is described as follows: Topical treatment of a child with progressive osseous heteroplasia (Example 3). It is filed as in vivo, human. The note with it: before the topical treatment; given with non steroidal anti-inflammatory medications. The protocol:
A child, weighing 27 kg, suffering from progressive osseous heteroplasia presented with significant ossifications that were responsible for a limitation of function in the right foot: in the ankle region, with an estimated surface area of 10 cm×5 cm, and in the popliteal fossa area with 2 patches, having an estimated surface area of 6 cm×4 cm each.
These exploratory tests were carried out in addition to the usual checkup including the exploration of renal function and liver function, as well as calcium and phosphate checkup.

The next data set concerns dystrophic calcification. The note with it: cited from earlier work.
The conditions of data set [2]: injectable solution of 0.15 g/mL with sodium phosphate dodecahydrate 1.21%, packaged in an ampoule; cited from earlier work.

Each structure is given as a SMILES string.

In the case of `CC(O)(P(=O)(O)O)P(=O)(O)O` [disodium etidronate], the “improvement under earlier treatment” value in data set [1] was “No improvement”.

Consider `O=S([O-])([O-])=S.[Na+].[Na+]` [sodium thiosulfate], for which the superficial calcifications entry in the data set with dystrophic calcification (after six months, 10% compresses twice a week, with topical corticosteroid, acetic acid compresses and oral antibiotics) is given as “dissolved”. Further, the pains entry in the data set on dystrophic calcification (after six months, 10% compresses, combined treatment) is “progressively abated”. In addition, the “re-epithelialisation over the wound regions” value in the data set on dystrophic calcification (three months later (after the first six months)) is reported as “almost complete re-epithelialisation”. Moreover, in data set [2], the stability was 3 years.

The values are drawn from patent publication US9629872B2, “Sodium thiosulphate for the treatment of ectopic calcifications” (Institut National de la Sante et de la Recherche Medicale …, priority 2012, dated 2017).
